Experimental data reported in US7666985B2, “HLA-A24-restricted cancer antigen peptides” (International Institute of Cancer Immunology, Inc., priority 2002, dated 2010).
Read-outs that look alike come from different tables or passages of the source. Ends that are not written are not given here.

How the values were obtained:
[1] = test system: C1R-A*2402 cells pulsed with the natural peptide of SEQ ID NO: 7; settings: PBMC from HLA-A2402 positive healthy donors stimulated in vitro with 10 μM peptide; E/T ratio of 10, 20 or 40
Experimental: (§1) Peripheral blood mononuclear cells were separated from healthy donors positive for HLA-A2402, and were placed into wells of a 24-well plate at 4×10^6 cells/well. To the wells, the natural peptide of SEQ ID NO: 7 or the altered peptide of SEQ ID NO: 3 was added at a concentration of 10 μM, and the mixture was incubated for a week in a culture medium comprising 45% RPMI1640, 45% AIV, 10% inactivated human AB serum, 1× nonessential amino acids, 25 ng/ml 2-mercaptoethanol, […] streptomycin, and 50 U/ml penicillin. After the incubation, the cells were adjusted to 2×10^6 cells/well, which were used as responder cells hereafter. On the other hand, peripheral blood mononuclear cells separated from the same healthy donors were incubated together with 10 μM of either of these peptides for 4 hours to accomplish the pulsing with peptide, and then radiated at 30 Gy. The cells were adjusted to 4×10^6 cells/well, which were used as stimulator cells hereafter.
(§2) The responder cells and the stimulator cells thus prepared were mixed together, and the mixture was added with IL-2 at 30 U/ml, and incubated. A similar stimulation of the responder cells with the stimulator cells was conducted three times with an interval of a week. The cytotoxic activity in those cells thus obtained was determined by ^51Cr release assay wherein the cytotoxic activity was determined by reacting the C1R-A*2402 cells positive for an HLA-A24 (Int. J. Cancer, 81, p 387, 1999) labeled with ^51Cr that were pulsed with the natural peptide of SEQ ID NO: 7 as target cells (T), and the cells stimulated with the natural peptide of SEQ ID NO: 7 or the altered peptide of SEQ ID NO: 3 as described above (effector cells)(E) at an E/T ratio of 10, 20 or 40. […] Further, a lung cancer cell line positive for WT1 and positive for an HLA-A24, RERF-LC-AI cells; a lung cancer cell line positive for WT1 and negative for an HLA-A2402, 11-18 cells; or a lung cancer cell line negative for WT1 and positive for an HLA-A24, 11-18 cells were used as target cells to determine the cytotoxic activities of the effector cells described above in a similar manner by ^51Cr release assay.

RERF-LC-AI cells = settings: PBMC effector cells stimulated with peptide, targets RERF-LC-AI (WT1+, HLA-A24+) versus WT1+/HLA-A2402- and WT1-/HLA-A24+ lung cancer lines (LK87, 11-18)
Experimental: as §1, §2

How did the “CTL-inducing activity (cytotoxic activity)” value [1] turn out when RVPGVAPTL [peptide B] was run?
The value was “CTLs were induced”.

What about the “cytotoxic activity of effector cells on lung cancer cell lines” value (RERF-LC-AI cells) of the same sequence?
The value was “CTLs were induced”.

What about the “cytotoxic activity of effector cells on lung cancer cell lines” value (RERF-LC-AI cells; listed as SEQ ID NO: 7) of the same sequence?
Its value is “specifically injured only the RERF-LC-AI cells”.
